Assay results from BindingDB's records for doi:10.1021/jm950817g (Institute, 1996).

Assay: Activity was evaluated by inhibition of the binding of 1 nM [3H]DPDPE at Opioid receptor delta 1 binding site

Compound	Ki [µM]
COC[C@]12Cc3ccc(O)cc3[C@](C)(CCc3nnnn31)C2 [1-methoxymethyl-9-methyl-(1S,9R)-2,3,4,5-tetraazatetracyclo[7.7.1.02,6.010,15]heptadeca-3,5,10(15),11,13-pentaen-12-ol]	> 10
CN1CNC2CCC3(C)CC2(Cc2ccc(O)cc23)C1 (stereo unspecified) [3,9-dimethyl-3,5-diazatetracyclo[7.7.1.01,6.010,15]heptadeca-10,12,14-trien-12-ol]	0.863
CN1CC23Cc4ccc(O)cc4C(C)(CCC12)C3 (stereo unspecified) [9,13-dimethyl-13-azatetracyclo[7.5.1.01,12.03,8]pentadeca-3,5,7-trien-6-ol]	> 10
CNC1CCC2(C)CC1(CO)Cc1ccc(O)cc12 (stereo unspecified) [9-Hydroxymethyl-1-methyl-10-methylamino-tricyclo[7.3.1.0*2,7*]trideca-2,4,6-trien-4-ol]	> 1000
CNCC12Cc3ccc(O)cc3C(C)(CCC1N)C2 (stereo unspecified) [10-Amino-1-methyl-9-methylaminomethyl-tricyclo[7.3.1.0*2,7*]trideca-2,4,6-trien-4-ol]	0.459
CC12CCC(N)C(CO)(Cc3ccc(O)cc31)C2 (stereo unspecified) [10-Amino-9-hydroxymethyl-1-methyl-tricyclo[7.3.1.0*2,7*]trideca-2,4,6-trien-4-ol]	> 1000
COCC12Cc3ccc(O)cc3C(C)(CCC1N)C2 (stereo unspecified) [10-Amino-9-methoxymethyl-1-methyl-tricyclo[7.3.1.0*2,7*]trideca-2,4,6-trien-4-ol]	0.467
CN(C)C1CCC2(C)CC1(C)Cc1ccc(O)cc12 (stereo unspecified) [10-Dimethylamino-1,9-dimethyl-tricyclo[7.3.1.0*2,7*]trideca-2,4,6-trien-4-ol]	10
CN(C)C1CCC2(C)CC1(CO)Cc1ccc(O)cc12 (stereo unspecified) [10-Dimethylamino-9-hydroxymethyl-1-methyl-tricyclo[7.3.1.0*2,7*]trideca-2,4,6-trien-4-ol]	> 1000
COCC12Cc3ccc(O)cc3C(C)(CCC1N(C)C)C2 (stereo unspecified) [10-Dimethylamino-9-methoxymethyl-1-methyl-tricyclo[7.3.1.0*2,7*]trideca-2,4,6-trien-4-ol]	1.4
COC[C@]12Cc3ccc(O)cc3[C@](C)(CCCN1C)C2 [(1R,9R)-9-Methoxymethyl-1,10-dimethyl-10-aza-tricyclo[7.4.1.0*2,7*]tetradeca-2(7),3,5-trien-4-ol]	> 5
